Experimental data published in ChEMBL document CHEMBL1201862, “PubChem BioAssay data set” (2004).
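Five concentrations, 48 hours, 96-well plates. GI50 marks 50% less growth.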 The source made the active and inactive calls. Rule as the data show it: active = GI50 up to about 1.1 µM and inactive = higher.

Key:
Test in all cases: NCI anticancer screen, dose series, 48 h
BT-549 = tested on: BT-549
IGROV-1 = tested on: IGROV-1
SNB-19 = tested on: SNB-19
UACC-62 = tested on: UACC-62
M14 = tested on: M14
NCI-H460 = tested on: NCI-H460
MOLT-4 = tested on: MOLT-4
KM12 = tested on: KM12
RXF 393 = tested on: RXF 393
EKVX = tested on: EKVX
A549 = tested on: A549
SK-OV-3 = tested on: SK-OV-3
MDA-N = tested on: MDA-N
SK-MEL-5 = tested on: SK-MEL-5
SN12C = tested on: SN12C
HCC 2998 = tested on: HCC 2998
HT-29 = tested on: HT-29
HOP-92 = tested on: HOP-92
LOX IMVI = tested on: LOX IMVI
CCRF-CEM = tested on: CCRF-CEM
Malme-3M = tested on: Malme-3M
U-251 = tested on: U-251
NCI-H23 = tested on: NCI-H23
UO-31 = tested on: UO-31
OVCAR-5 = tested on: OVCAR-5
TK-10 = tested on: TK-10
HOP-62 = tested on: HOP-62
MDA-MB-435 = tested on: MDA-MB-435
SK-MEL-28 = tested on: SK-MEL-28
RPMI-8226 = tested on: RPMI-8226
T47D = tested on: T47D
SF-539 = tested on: SF-539
COLO 205 = tested on: COLO 205
SF-295 = tested on: SF-295
CAKI-1 = tested on: CAKI-1
DU-145 = tested on: DU-145
K562 = tested on: K562
OVCAR-3 = tested on: OVCAR-3
786-0 = tested on: 786-0
UACC-257 = tested on: UACC-257
NCI-H226 = tested on: NCI-H226
SF-268 = tested on: SF-268
SR = tested on: SR
PC-3 = tested on: PC-3
HL-60 = tested on: HL-60
MCF7 = tested on: MCF7
HCT-15 = tested on: HCT-15
MDA-MB-231 = tested on: MDA-MB-231
SK-MEL-2 = tested on: SK-MEL-2
HCT-116 = tested on: HCT-116
A498 = tested on: A498
Hs-578T = tested on: Hs-578T
SW-620 = tested on: SW-620
OVCAR-4 = tested on: OVCAR-4
ACHN = tested on: ACHN
NCI-H522 = tested on: NCI-H522
NCI/ADR-RES = tested on: NCI/ADR-RES
OVCAR-8 = tested on: OVCAR-8
SNB-75 = tested on: SNB-75

COc1ccc(/N=N/N2CCCC2)cc1
GI50 (BT-549): 23.2 µM (inactive) | GI50 (IGROV-1): 14.9 µM (inactive) | GI50 (SNB-19): > 100 µM (inactive) | GI50 (UACC-62): 30.9 µM (inactive) | GI50 (M14): 44.8 µM (inactive) | GI50 (NCI-H460): > 100 µM (inactive) | GI50 (MOLT-4): 26.9 µM (inactive) | GI50 (KM12): 0.305 µM (active) | GI50 (RXF 393): 26.1 µM (inactive) | GI50 (EKVX): 19.7 µM (inactive) | GI50 (A549): > 100 µM (inactive) | GI50 (SK-OV-3): > 100 µM (inactive) | GI50 (MDA-N): 16.9 µM (inactive) | GI50 (SK-MEL-5): 30.4 µM (inactive) | GI50 (SN12C): 21.7 µM (inactive) | GI50 (HCC 2998): 45.6 µM (inactive) | GI50 (HT-29): 40.2 µM (inactive) | GI50 (HOP-92): 21.7 µM (inactive) | GI50 (LOX IMVI): 16.1 µM (inactive) | GI50 (CCRF-CEM): 16.7 µM (inactive) | GI50 (Malme-3M): 17.6 µM (inactive) | GI50 (U-251): > 100 µM (inactive) | GI50 (NCI-H23): 61.7 µM (inactive) | GI50 (UO-31): 31.9 µM (inactive) | GI50 (OVCAR-5): 83.9 µM (inactive) | GI50 (TK-10): 57.1 µM (inactive) | GI50 (HOP-62): > 100 µM (inactive) | GI50 (MDA-MB-435): 70.6 µM (inactive) | GI50 (SK-MEL-28): 44.2 µM (inactive) | GI50 (RPMI-8226): 26.1 µM (inactive) | GI50 (T47D): 18.3 µM (inactive) | GI50 (SF-539): 29.8 µM (inactive) | GI50 (COLO 205): 17.9 µM (inactive) | GI50 (SF-295): > 100 µM (inactive) | GI50 (CAKI-1): 16.2 µM (inactive) | GI50 (DU-145): > 100 µM (inactive) | GI50 (K562): 31.4 µM (inactive) | GI50 (OVCAR-3): 19.6 µM (inactive) | GI50 (786-0): 15.6 µM (inactive) | GI50 (UACC-257): > 100 µM (inactive) | GI50 (NCI-H226): > 100 µM (inactive) | GI50 (SF-268): 31.8 µM (inactive) | GI50 (SR): 48.3 µM (inactive) | GI50 (PC-3): 36.5 µM (inactive) | GI50 (HL-60): 30.1 µM (inactive) | GI50 (MCF7): 30.8 µM (inactive) | GI50 (HCT-15): 22.6 µM | GI50 (MDA-MB-231): 20.5 µM (inactive) | GI50 (SK-MEL-2): > 100 µM (inactive) | GI50 (HCT-116): 20.1 µM (inactive) | GI50 (A498): > 100 µM (inactive) | GI50 (Hs-578T): 54.5 µM (inactive) | GI50 (SW-620): 26.8 µM (inactive) | GI50 (OVCAR-4): 18.6 µM (inactive) | GI50 (ACHN): 15.5 µM (inactive) | GI50 (NCI-H522): 12.9 µM (inactive)

O=S(=O)(O)c1cc(S(=O)(=O)O)c2c(/N=N/c3ccccc3)c(O)ccc2c1
GI50 (BT-549): > 100 µM (inactive) | GI50 (IGROV-1): > 100 µM (inactive) | GI50 (SNB-19): > 100 µM (inactive) | GI50 (UACC-62): > 100 µM (inactive) | GI50 (NCI/ADR-RES): > 100 µM (inactive) | GI50 (M14): > 100 µM (inactive) | GI50 (OVCAR-8): > 100 µM (inactive) | GI50 (MOLT-4): > 100 µM (inactive) | GI50 (KM12): > 100 µM (inactive) | GI50 (RXF 393): > 100 µM (inactive) | GI50 (A549): > 100 µM (inactive) | GI50 (SK-OV-3): > 100 µM (inactive) | GI50 (MDA-N): > 100 µM (inactive) | GI50 (SK-MEL-5): > 100 µM (inactive) | GI50 (SN12C): > 100 µM (inactive) | GI50 (HT-29): > 100 µM (inactive) | GI50 (HOP-92): > 100 µM (inactive) | GI50 (LOX IMVI): > 100 µM (inactive) | GI50 (CCRF-CEM): > 100 µM (inactive) | GI50 (U-251): > 100 µM (inactive) | GI50 (NCI-H23): > 100 µM (inactive) | GI50 (UO-31): > 100 µM (inactive) | GI50 (OVCAR-5): > 100 µM (inactive) | GI50 (TK-10): > 100 µM (inactive) | GI50 (HOP-62): > 100 µM (inactive) | GI50 (MDA-MB-435): > 100 µM (inactive) | GI50 (SK-MEL-28): > 100 µM (inactive) | GI50 (RPMI-8226): > 100 µM (inactive) | GI50 (T47D): > 100 µM (inactive) | GI50 (COLO 205): > 100 µM (inactive) | GI50 (SF-295): > 100 µM (inactive) | GI50 (CAKI-1): > 100 µM (inactive) | GI50 (DU-145): > 100 µM (inactive) | GI50 (K562): > 100 µM (inactive) | GI50 (OVCAR-3): > 100 µM (inactive) | GI50 (786-0): > 100 µM (inactive) | GI50 (UACC-257): > 100 µM (inactive) | GI50 (NCI-H226): > 100 µM (inactive) | GI50 (SF-268): > 100 µM (inactive) | GI50 (PC-3): > 100 µM (inactive) | GI50 (HCT-15): > 100 µM | GI50 (MDA-MB-231): > 100 µM (inactive) | GI50 (SNB-75): > 100 µM (inactive) | GI50 (SK-MEL-2): > 100 µM (inactive) | GI50 (HCT-116): > 100 µM (inactive) | GI50 (A498): > 100 µM (inactive) | GI50 (Hs-578T): > 100 µM (inactive) | GI50 (SW-620): > 100 µM (inactive) | GI50 (OVCAR-4): > 100 µM (inactive)
